# Reference: patent US5795977A, “Water soluble adenosine kinase inhibitors” (Metabasis Therapeutics, Inc., priority 1996, dated 1998)
# How the values were obtained:
# Water solubility = format: physicochemical; conditions: suitable pH for i.v. administration (e.g. pH 4 to 10)
# Description: The sample was sonicated for a period of up to 20 minutes. If a solution was not obtained, further solvent was added and the process was repeated until a clear solution was obtained, and the results were recorded. Solutions used were 50 mM potassium biphthalate (pH 4); 100 mM glycine (pH 9); 25 mM sodium carbonate and 25 mM sodium bicarbonate (pH 10); or deionized water (DI).
# Rats (carrageenan paw) = assay: Anti-inflammatory activity, carrageenan paw swelling; format: in vivo; conditions: rat, 10 mg/kg, swelling after 3 hours
# Description: Carrageenan (Type λ) was suspended in sterile PBS at 1% (w/v), autoclaved for 30 minutes, and stored at room temperature. Rats were pretreated with vehicle or AK inhibitor (10 mg/kg) by oral gavage or i.p. administration and the volume of the left hind paw was measured using a water displacement plethysmometer (Stoelting Co., Wood Dale, Ill.). One hour after oral treatment or 30 minutes after i.p. treatment, the rats were briefly anesthetized, and 0.1 ml of the carrageenan solution was injected subcutaneously into the planar surface of the left hind paw. The ensuing paw swelling was measured by plethysmometry after 3 hours. The paw volume in millileters was […]. Data are presented in Table 2 as the percent inhibition of paw swelling in AK inhibitor treated animals, compared to vehicle treated control animals.
# [1] = system: male SA rats (maximal electroshock seizures); assay: Anticonvulsant activity, maximal electroshock seizures (MES); format: in vivo; conditions: rat, po, fasted; >> = no activity at the stated dose
# Description: The anticonvulsant activity of the tested compounds was evaluated in male SA rats (100-150g, Simonsen) using the maximal electroshock (MES) model described in Swinyard et al., Antiepileptic Drugs, 3d Ed. at 85-102 (Levy, et al., eds.), NY: Raven Press (1989). The rats were maintained on a 12/12 light/dark cycle in temperature controlled facilities with free access to food and water. For p.o. administration, the animals are fasted overnight, prior to the experiment. One to two hours prior to seizure testing, the animals were injected interperitoneally (ip) or orally (per os, po) with one of various doses of test compound dissolved in DMSO or PEG 400.
# This endpoint was expressed as the percentage of animals in which the response was inhibited.
# Rats (formalin paw) = assay: Formalin paw assay; format: in vivo; conditions: rat, oral 90 min prior, 10.3-30 min post-formalin, vs vehicle
# Description: In this assay, injection of formalin, an irritant, into the hindpaw of rats typically evokes a biphasic response of pain-related behaviors. Phase 1 of the response which is brief, lasting approximately 0-5 min post-injection,is followed by a more prolonged phase 2, lasting approximately 10-80 min post-injection. Phase 1 behavior is thought to be a direct effect of the irritant on nociceptors at the injection site while phase 2 behavior is thought to include a hyperalgesic component mediated by sensitization of neuronal elements within the spinal cord. Studies from other laboratories have found the first portion of Phase 2 (sometimes referred to as Phase 2a) to be most responsive to pharmacological manipulation.
# Rats (male, Simonsen) weighing between 100-200 g, are used in the present experiments. For screening purposes drugs are administered orally 90 min prior to initiation of formalin test. At designated intervals the animals in groups of 4 are placed individually in a small animal restrainer with the right hindpaw accessible through a hole in the bottom of the restrainer. The formalin paw assay is initiated by the injection using a 30G needle of 50 ul of a 5% formalin solution in saline into the right plantar surface of each hindpaw. […]
# Scores are continuously recorded directly onto an Excel spreadsheet.
# [2] = biological target: partially purified pig heart adenosine kinase or recombinant human adenosine kinase; assay: AK inhibition; format: biochemical; conditions: 0.5 μM [U-14C] adenosine, pH 7.0, 37° C., 20 minutes
# Description: Adenosine kinase activity was measured essentially as described by Yamada et al. Biochim. Biophys. Acta 660, 36-43 (1988) with a few minor modifications. Assay mixtures contained 50 mM TRIS-maleate buffer, pH 7.0, 0.1% BSA, 1 mM ATP 1 mM MgCl2, 0.5 μM [U-^14 C] adenosine (400-600 mCi/mmol) and varying duplicate concentrations of inhibitor. […] The amount of ^14 C-AMP was quantified by scintillation counting.
water solubility (Water solubility),IC50 [2],SMILES,Carrageenan Paw (% inhibition) ip (Rats (carrageenan paw); ip),Carrageenan Paw (% inhibition) po (Rats (carrageenan paw); oral gavage),ED50 [1],"Phase 2 composite score, percent inhibition (Rats (formalin paw))"
less than 20 μg/ml,–,"C[C@H]1O[C@@H](n2cc(-c3ccccc3)c3c(Nc4ccccc4)ncnc32)[C@H](O)[C@@H]1O [5-phenyl-4-N-phenylamino-7-(5-deoxy-1-β-D-ribofuranosyl)pyrrolo[2,3-d]pyrimidine]",–,–,–,–
–,2 nM,"C[C@H]1O[C@@H](n2cc(-c3ccccc3)c3c(Nc4ccc(CCN5CCOCC5)cc4)ncnc32)[C@H](O)[C@@H]1O [Compound 3, 4-N-[4-(2-(4-morpholino)ethyl)phenyl]amino-5-phenyl-7-(5-deoxy-β-D-ribofuranosyl)pyrrolo[2,3-d]pyrimidine]",19.5%,9.8%,> 10 mg/kg,31%
